Assay type in all cases: cell-based
For assay [1], the system named is Chikungunya virus (CHIKV). The assay can be described thus: microbe, parasite or virus in culture. The following applies: Chikungunya virus, Vero, 48 h, read-out: Percent viral inhibition CHKV.
Assay [2] deals with dengue virus (DENV). The assay can be described thus: microbe, parasite or virus in culture. The following applies: Dengue virus, Vero, 120 h, read-out: Percent viral inhibition DENY.
For assay [3], the system named is Marburg virus (MARV). The assay can be described thus: organism not typed. To be noted: Vero, 72 h, read-out: Percent viral inhibition MARV.

On to `CC(=O)NCC1CCN(Cc2cc(Oc3ccc(NCC(C)(C)N)nc3)cc(-c3cc(Cl)cc(Cl)c3)c2)CC1` [Example 105, N-((1-((5-((6-((2-amino-2-methylpropyl)amino)pyridin-3-yl)oxy)-3′,5′-dichloro-[1,1′-biphenyl]-3-yl)methyl)piperidin-4-yl)methyl)acetamide], for which the results for the inhibition at 1 µM in assay [1], in assay [2] and in assay [3] were 0%, 19.9% and 0%, respectively.
On to `CNCc1cc(Oc2ccc(N3CCC(N)CC3)nc2)nc(-c2cc(C)cc(Cl)c2)c1` [Example 108, 1-(5-((6-(3-chloro-5-methylphenyl)-4-((methylamino)methyl)pyridin-2-yl)oxy)pyridin-2-yl)piperidin-4-amine], for which the inhibition at 1 µM in assay [1] turned out to be 16.4%; in assay [2] it was 0%; in assay [3], 65.7%.
As for `CC(=O)NCC1CCN(Cc2cc(Oc3cnc(N4CCNCC4)cn3)nc(-c3cc(Cl)cc(Cl)c3)c2)CC1` [Example 109, N-((1-((2-(3,5-dichlorophenyl)-6-((5-(piperazin-1-yl)pyrazin-2-yl)oxy)pyridin-4-yl)methyl)piperidin-4-yl)methyl)acetamide], the inhibition at 1 µM in assay [1] is 7.33%; in assay [2], 0%; in assay [3], 32.9%.
Regarding `CC(=O)NCC1CCN(Cc2cc(Oc3cnc(N4CCN(C)CC4)cn3)nc(-c3cc(Cl)cc(Cl)c3)c2)CC1` [Example 110, N-((1-((2-(3,5-dichlorophenyl)-6-((5-(4-methylpiperazin-1-yl)pyrazin-2-yl)oxy)pyridin-4-yl)methyl)piperidin-4-yl)methyl)acetamide], the results for the inhibition at 1 µM in assay [1], in assay [2] and in assay [3] were 9.88%, 13.6% and 59.5%, respectively.
Take `CC(=O)NCC1CCN(Cc2cc(Oc3cnc(N4CCN(CCC(=O)O)CC4)cn3)nc(-c3cc(Cl)cc(Cl)c3)c2)CC1` [Example 111]: the inhibition at 1 µM in assay [1] turned out to be 22.3%; in assay [2], 48.8%; in assay [3], 29.8%.
As for `O=C(O)CCC1CCN(Cc2cc(Oc3cnc(N4CCN(CCO)CC4)nc3)cc(-c3cc(Cl)cc(Cl)c3)c2)CC1` [Example 114, 3-(1-((3′,5′-dichloro-5-((2-(4-(2-hydroxyethyl)piperazin-1-yl)pyrimidin-5-yl)oxy)-[1,1′-biphenyl]-3-yl)methyl)piperidin-4-yl)propanoic acid], the inhibition at 1 µM was determined as 26.6% in assay [1], 38.1% in assay [2] and 74.2% in assay [3].
The corresponding values for `CC(=O)NCC1CCN(Cc2cc(Oc3ccc(N4CCN(CCC(=O)O)CC4)nc3)nc(-c3cc(F)cc(Cl)c3)c2)CC1` [Example 115, 3-(4-(5-((4-((4-(acetamidomethyl)piperidin-1-yl)methyl)-6-(3-chloro-5-fluorophenyl)pyridin-2-yl)oxy)pyridin-2-yl)piperazin-1-yl)propanoic acid] are 4.53%, 2.3% and 59.2%.
The like results for `CC(=O)NCC1CCN(Cc2cc(Oc3ccc(N4CCN(CCC(=O)O)CC4)nc3)nc(-c3cc(F)cc(Br)c3)c2)CC1` [Example 116] were, in that order, 10.4%, 6.7% and 4.3%.
The corresponding values for `CN1CCN(c2ncc(Oc3cc(CN4CCC(CC(=O)O)CC4)cc(-c4cc(Cl)cc(Cl)c4)c3)cn2)CC1` [Example 117, 2-(1-((3′,5′-dichloro-5-((2-(4-methylpiperazin-1-yl)pyrimidin-5-yl)oxy)-[1,1′-biphenyl]-3-yl)methyl)piperidin-4-yl)acetic acid] are 18%, 28.6% and 43.6%.
`CC(=O)NCC1CCN(Cc2cc(Oc3cnc(N4CCCNCC4)nc3)nc(-c3cc(Cl)cc(Cl)c3)c2)CC1` [Example 118, N-((1-((2-((2-(1,4-diazepan-1-yl)pyrimidin-5-yl)oxy)-6-(3,5-dichlorophenyl)pyridin-4-yl)methyl)piperidin-4-yl)methyl)acetamide]: the inhibition at 1 µM in assay [1] is 0%; in assay [2], 15.6%; in assay [3], 0%.
Consider `O=C(O)COC1CCN(Cc2cc(Oc3cnc(N4CCNCC4)nc3)nc(-c3cc(Cl)cc(Cl)c3)c2)CC1` [Example 122, 2-((1-((2-(3,5-dichlorophenyl)-6-((2-(piperazin-1-yl)pyrimidin-5-yl)oxy)pyridin-4-yl)methyl)piperidin-4-yl)oxy)acetic acid], for which the inhibition at 1 µM in assay [1] came out at 35.5%; in assay [2], 33.7%; in assay [3] it was 23.6%.
The like results for `O=C(O)CC1CCN(Cc2cc(Oc3cnc(N4CCNCC(O)C4)nc3)nc(-c3cc(Cl)cc(Cl)c3)c2)CC1` (stereo not drawn) [Example 123, 2-(1-((2-(3,5-dichlorophenyl)-6-((2-(6-hydroxy-1,4-diazepan-1-yl)pyrimidin-5-yl)oxy)pyridin-4-yl)methyl)piperidin-4-yl)acetic acid] were, in that order, 19.2%, 39.9% and 50.6%.
The corresponding values for `NC1(CCO)CCN(c2ncc(Oc3cc(CN4CCC(CC(=O)O)CC4)cc(-c4cc(Cl)cc(Cl)c4)n3)cn2)CC1` [Example 124, 2-(1-((2-((2-(4-amino-4-(2-hydroxyethyl)piperidin-1-yl)pyrimidin-5-yl)oxy)-6-(3,5-dichlorophenyl)pyridin-4-yl)methyl)piperidin-4-yl) acetic acid] are 21.2%, 1.28% and 63.8%.
The like results for `CN1CCCN(c2ncc(Oc3cc(CN4CCC(CC(=O)O)CC4)cc(-c4cc(Cl)cc(Cl)c4)n3)cn2)CC1` [Example 126, 2-(1-((2-(3,5-dichlorophenyl)-6-((2-(4-methyl-1,4-diazepan-1-yl)pyrimidin-5-yl)oxy)pyridin-4-yl)methyl)piperidin-4-yl)acetic acid] were, in that order, 23.6%, 8.34% and 38.5%.
For `CC(CC(=O)O)C1CN(Cc2cc(Oc3cnc(N4CCN(C)CC4)nc3)nc(-c3cc(Cl)cc(Cl)c3)c2)C1` (stereo not drawn) [Example 127, 3-(1-((2-(3,5-dichlorophenyl)-6-((2-(4-methylpiperazin-1-yl)pyrimidin-5-yl)oxy)pyridin-4-yl)methyl)azetidin-3-yl)butanoic acid], the inhibition at 1 µM is 26% in assay [1], 0% in assay [2] and 52.1% in assay [3].
On to `CN1CCN(c2ncc(Oc3cc(CN4CCC(OCC(=O)O)C4)cc(-c4cc(Cl)cc(Cl)c4)n3)cn2)CC1` (stereo not drawn) [Example 128, 2-((1-((2-(3,5-dichlorophenyl)-6-((2-(4-methylpiperazin-1-yl)pyrimidin-5-yl)oxy)pyridin-4-yl)methyl)pyrrolidin-3-yl)oxy)acetic acid], for which the inhibition at 1 µM in assay [1] amounted to 3.67%; in assay [2], 7.97%; in assay [3] it was 51.4%.
The corresponding values for `CN1CCN(c2ncc(Oc3cc(CN4CC5CC(CC(=O)O)CC5C4)cc(-c4cc(Cl)cc(Cl)c4)n3)cn2)CC1` (stereo not drawn) [Example 129, 2-(2-((2-(3,5-dichlorophenyl)-6-((2-(4-methylpiperazin-1-yl)pyrimidin-5-yl)oxy)pyridin-4-yl)methyl)octahydrocyclopenta[c]pyrrol-5-yl)acetic acid] are 23.6%, 38.5% and 29.8%.
For `CN1CCN(c2ncc(Oc3cc(CN4CCC(CCC(=O)O)CC4)cc(-c4cc(Cl)cc(Cl)c4)n3)cn2)CC1` [Example 130, 3-(1-((2-(3,5-dichlorophenyl)-6-((2-(4-methylpiperazin-1-yl)pyrimidin-5-yl)oxy)pyridin-4-yl)methyl)piperidin-4-yl)propanoic acid], the inhibition at 1 µM amounted to 28.4% in assay [1], 33% in assay [2] and 33.3% in assay [3].
For the compound `CC(CC1CCN(Cc2cc(Oc3cnc(N4CCN(C)CC4)nc3)nc(-c3cc(Cl)cc(Cl)c3)c2)CC1)C(=O)O` (stereo not drawn) [Example 131, 3-(1-((2-(3,5-dichlorophenyl)-6-((2-(4-methylpiperazin-1-yl)pyrimidin-5-yl)oxy)pyridin-4-yl)methyl)piperidin-4-yl)-2-methylpropanoic acid], the inhibition at 1 µM in assay [1] came to 3.11%; in assay [2], 20.7%; in assay [3], 52.4%.
The corresponding values for `O=C(O)CC1CCN(Cc2cc(Oc3cnc(N4CCCNCC4)nc3)nc(-c3cc(Cl)cc(Cl)c3)c2)CC1` [Example 132, 2-(1-((2-((2-(1,4-diazepan-1-yl)pyrimidin-5-yl)oxy)-6-(3,5-dichlorophenyl)pyridin-4-yl)methyl)piperidin-4-yl) acetic acid] are 35.2%, 32.8% and 46.8%.
As for `CN1CC2CN(c3ncc(Oc4cc(CN5CCC(CC(=O)O)CC5)cc(-c5cc(Cl)cc(Cl)c5)n4)cn3)CC2C1` (stereo not drawn) [Example 133, 2-(1-((2-(3,5-dichlorophenyl)-6-((2-(5-methylhexahydropyrrolo[3,4-c]pyrrol-2(1H)-yl)pyrimidin-5-yl)oxy)pyridin-4-yl)methyl)piperidin-4-yl)acetic acid], the inhibition at 1 µM in assay [1] is 43.4%; in assay [2], 47.8%; in assay [3], 54%.
`C[C@@H](CC1CCN(Cc2cc(Oc3cnc(N4CCN(C)CC4)nc3)nc(-c3cc(Cl)cc(Cl)c3)c2)CC1)C(=O)O` [Example 134, (S)-3-(1-((2-(3,5-dichlorophenyl)-6-((2-(4-methylpiperazin-1-yl)pyrimidin-5-yl)oxy)pyridin-4-yl)methyl)piperidin-4-yl)-2-methylpropanoic acid]: the inhibition at 1 µM stood at 0% in assay [1], 43.2% in assay [2] and 45.1% in assay [3].

As a reminder, the inhibition is how much of the control response was suppressed.

The values above are taken from US20230011571A1, “SMALL MOLECULE FURIN INHIBITORS FOR TREATING INFECTIOUS DISEASES” (BP Asset V, Inc., priority 2019, published 2023).
